# Reference: US20200164023A1, “METHODS FOR PREVENTING AND TREATING INTRA-ABDOMINAL CANDIDIASIS” (Cidara Therapeutics, Inc., priority 2017, published 2020)
# Numbered stars: 1 amine (or outer) side, 2 acyl side, 3 side chain; on linkers, the order of the positions; unused ones are H or OH. Bridge positions count the residues as written; N and C are the ends. Square brackets hold non-standard residues; d marks the D form. Peptide text beside a SMILES is read from it. * marks the point of attachment. pTerphenylCO(4''-OnC5H11) = CCCCCOc1ccc(-c2ccc(-c3ccc(C(=O)*)cc3)cc2)cc1; Orn(4R-OH,5R-OH) = O=C([C@H](C[C@@H](O)[C@@H](O)N[*:3])N[*:1])[*:2]; hTyr(3S-OH,4S-OH) = N[C@H](C(=O)O)[C@H](O)[C@@H](O)c1ccc(O)cc1; Pro(3S-OH,4S-Me) = C[C@H]1CN[C@H](C(=O)O)[C@H]1O; Hyp = O=C(O)[C@@H]1C[C@@H](O)CN1
# System: C. glabrata isolates
# Assay: Susceptibility profiles of C. glabrata clinical isolates
# Assay type: cell-based
# Excerpt: 168 C. glabrata isolates are collected from blood or other sterile sites in our repository. 11 clinical isolates are selected that display various susceptibility profiles against anidulafungin, caspofungin, and micafungin, and/or harbor mutant or wild-type FKS genes (Table 1). Additionally, 29 isolates are picked that are susceptible to all three echinocandins and harbor wild-type FKS genes. These 40 clinical isolates undergo CD101 susceptibility testing according to the CLSI broth microdilution reference methods. Stock solutions are prepared in DMSO. […] MICs are determined visually after 24-h of incubation. C. krusei ATCC 6258 and C. parapsilosis ATCC 22019 are included for quality controls.
SMILES,"susceptibility profile, value (Isolate 1, FKS R653I)","susceptibility profile, value (Isolate 2, FKS Wild-type)","susceptibility profile, value (Isolate 3, FKS F659L)","susceptibility profile, value (Isolate 4, FKS F659S)","susceptibility profile, value (Isolate 5, FKS R636S)","susceptibility profile, value (Isolate 6, FKS F659del)","susceptibility profile, value (Isolate 7, FKS S663P)","susceptibility profile, value (Isolate 8, FKS S663P)","susceptibility profile, value (Isolate 9, FKS D632Y)","susceptibility profile, value (Isolate 10, FKS D632Y)","susceptibility profile, value (Isolate 11, FKS F659del)"
"CC[C@H](C)C[C@H](C)CCCCCCCCC(=O)N[C@H]1C[C@@H](O)[C@@H](NCCN)NC(=O)[C@@H]2[C@@H](O)CCN2C(=O)[C@H]([C@H](O)CCN)NC(=O)[C@H]([C@H](O)[C@@H](O)c2ccc(O)cc2)NC(=O)[C@@H]2C[C@@H](O)CN2C(=O)[C@H]([C@@H](C)O)NC1=O [Caspofungin, caspofungin]",0.125,0.25,1,1,4,8,8,0.5,2,2,16
"CCCCCOc1ccc(-c2ccc(-c3ccc(C(=O)N[C@H]4C[C@@H](O)[C@@H](O)NC(=O)[C@@H]5[C@@H](O)[C@@H](C)CN5C(=O)[C@H]([C@@H](C)O)NC(=O)[C@H]([C@H](O)[C@@H](O)c5ccc(O)cc5)NC(=O)[C@@H]5C[C@@H](O)CN5C(=O)[C@H]([C@@H](C)O)NC4=O)cc3)cc2)cc1 [Anidulafungin, anidulafungin] ({pTerphenylCO(4''-OnC5H11)}-[Orn(4R-OH,5R-OH)]T[Hyp][hTyr(3S-OH,4S-OH)]T[Pro(3S-OH,4S-Me)]; lactam 1-C)",0.015,0.015,0.06,0.5,0.5,2,2,0.5,0.5,1,2
